pIC50: −log10 of the molar value.

In the test the test system is Colo205 human colon carcinoma cell line. The experiment in a line: In vitro tumor cell proliferation assay (MTS, CellTiter 96 Aqueous One Solution). The format is cell-based. The settings on record: COLO 205, Colo205 cells, 72 hours compound exposure, MTS absorbance at 490 nm, read-out: IC50 (concentration of test compound required to inhibit proliferation of 50% of the cells). An outline of the steps:
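Colo205 cells seeded at 2000 cells/well in RPMI-1640 with 10% serum, exposed to compound for 72 h at 37 °C, 5% CO2, in a 5-point dose-response up to 10-20 μM. Viability read by MTS absorbance at 490 nm; IC50 from background-corrected percent inhibition by linear regression.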
Consider `COC[C@H]1CCCN1Cc1ccc(-n2cc(C(=O)O)c(=O)c3cc(F)c(N4CCN(c5ncccn5)CC4)c(Cl)c32)cc1` [Example 22, 8-chloro-6-fluoro-1-(4-{[(2R)-2-(methoxy-methyl)pyrrolidin-1-yl]methyl}phenyl)-4-oxo-7-(4-pyrimidin-2-ylpiperazin-1-yl)-1,4-dihydroquinoline-3-carboxylic acid], for which the pIC50 is 5.70 to 6.30. In the case of `Cc1ccccc1N1CCN(c2c(F)cc3c(=O)c(C(=O)O)cn(-c4ccc(CN5CCCC5)cc4)c3c2Cl)CC1` [Example 11, 8-chloro-6-fluoro-7-[4-(2-methylphenyl)-piperazin-1-yl]-4-oxo-1-[4-(pyrrolidin-1-ylmethyl)phenyl]-1,4-dihydroquinoline-3-carboxylic acid], the pIC50 was 5.70 to 6.30. On to `COC[C@@H]1CCCN1Cc1ccc(-n2cc(C(=O)O)c(=O)c3cc(F)c(N4CCN(c5ccccn5)CC4)c(Cl)c32)cc1` [Example 24, 8-chloro-6-fluoro-1-(4-{[(2S)-2-(methoxy-methyl)pyrrolidin-1-yl]methyl}phenyl)-4-oxo-7-(4-pyridin-2-ylpiperazin-1-yl)-1,4-dihydroquinoline-3-carboxylic acid], for which the pIC50 was more than 6.30. `COc1cc(CNC2CCC2)ccc1-n1cc(C(=O)O)c(=O)c2cc(F)c(N3CCN(c4ccc(F)cc4)CC3)c(Cl)c21` [Example 178, 8-chloro-1-(4-cyclobutylaminomethyl-2-methoxyphenyl)-6-fluoro-7-[4-(4-fluorophenyl)-piperazine-1-yl]-4-oxo-1,4-dihydroquinoline-3-carboxylic acid]: the pIC50 was more than 6.30. The same measure for `O=C(O)c1cn(-c2ccc(CNC3CCCC3)cc2)c2c(Cl)c(N3CCN(c4ccccn4)CC3)c(F)cc2c1=O` [Example 56, 8-chloro-1-{4-[(cyclopentylamino)-methyl]phenyl}-6-fluoro-4-oxo-7-(4-pyridin-2-ylpiperazin-1-yl)-1,4-dihydroquinoline-3-carboxylic acid]: more than 6.30. The same measure for `COc1ccccc1N1CCN(c2c(F)cc3c(=O)c(C(=O)O)cn(-c4ccc(CN5CCCC5)cc4)c3c2OC)CC1` [Example 83, 6-fluoro-8-methoxy-7-[4-(2-methoxyphenyl)-piperazin-1-yl]-4-oxo-1-[4-(pyrrolidin-1-ylmethyl)phenyl]-1,4-dihydroquinoline-3-carboxylic acid]: 5.70 to 6.30. The same measure for `O=C(O)c1cn(-c2ccc(CN3CCCC3)cc2)c2c(OC(F)(F)F)c(N3CCN(c4ncccn4)CC3)c(F)cc2c1=O` [Example 123, 6-fluoro-4-oxo-7-(4-pyrimidin-2-yl-piperazin-1-yl)-1-[4-(pyrrolidin-1-ylmethyl)phenyl]-8-(trifluoromethoxy)-1,4-dihydroquinoline-3-carboxylic acid]: more than 6.30. Take `O=C(O)c1cn(-c2ccc(CN3CCCC3)cc2)c2c(OC(F)(F)Cl)c(N3CCN(c4ccc(F)cc4)CC3)c(F)cc2c1=O` [Example 147, 8-[chloro(difluoro)methoxy]-6-fluoro-7-[4-(4-fluorophenyl)piperazin-1-yl]-4-oxo-1-[4-(pyrrolidin-1-ylmethyl)phenyl]1,4-dihydroquinoline-3-carboxylic acid]: the pIC50 is more than 6.30.

With `O=C(O)c1cn(-c2ccc(CN3CCCC3)cc2)c2c(OC(F)(F)F)c(N3CCN(c4ccccn4)CC3)c(F)cc2c1=O` [Example 124, 6-fluoro-4-oxo-7-(4-pyridin-2-yl-piperazin-1-yl)-1-[4-(pyrrolidin-1-ylmethyl)phenyl]-8-(trifluoromethoxy)-1,4-dihydroquinoline-3-carboxylic acid], the pIC50 was more than 6.30. Turning to `Cc1cccnc1N1CCN(c2c(F)cc3c(=O)c(C(=O)O)cn(-c4ccc(CN(C)C)cc4)c3c2OC(F)(F)F)CC1` [Example 129, 1-{4-[(dimethylamino)methyl]phenyl}-6-fluoro-7-[4-(3-methylpyridin-2-yl)piperazin-1-yl]-4-oxo-8-(trifluoromethoxy)-1,4-dihydroquinoline-3-carboxylic acid], the pIC50 was 5.70 to 6.30. Regarding `CCN(CC)Cc1ccc(-n2cc(C(=O)O)c(=O)c3cc(F)c(N4CCN(c5ncccc5C#N)CC4)c(OC)c32)cc1` [Example 113, 7-[4-(3-cyanopyridin-2-yl)piperazin-1-yl]-1-{4-[(diethylamino)methyl]phenyl}-6-fluoro-8-methoxy-4-oxo-1,4-dihydroquinoline-3-carboxylic acid], the pIC50 is more than 6.30. The result for `COc1c(N2CCN(c3ccc(Cl)c(Cl)c3)CC2)c(F)cc2c(=O)c(C(=O)O)cn(-c3ccc(CN4CCCC4)cc3)c12` [Example 86, 7-[4-(3,4-dichlorophenyl)piperazin-1-yl]-6-fluoro-8-methoxy-4-oxo-1-[4-(pyrrolidin-1-ylmethyl)phenyl]-1,4-dihydroquinoline-3-carboxylic acid] reads 5.70 to 6.30. With `CCN(CC)Cc1ccc(-n2cc(C(=O)O)c(=O)c3cc(F)c(N4CCN(c5ccc(Cl)cc5)CC4)c(OC(F)(F)Cl)c32)cc1` [Example 164, 8-[chloro(difluoro)methoxy]-7-[4-(4-chlorophenyl)piperazin-1-yl]-1-{4-[(diethylamino)methyl]phenyl}-6-fluoro-4-oxo-1,4-dihydroquinoline-3-carboxylic acid], the pIC50 is more than 6.30. For `CN(C)CCc1ccc(-n2cc(C(=O)O)c(=O)c3cc(F)c(N4CCN(c5ccc(Cl)cc5)CC4)c(Cl)c32)cc1` [Example 70, 8-chloro-7-[4-(4-chlorophenyl)piperazin-1-yl]-1-{4-[2-(dimethylamino)ethyl]phenyl}-6-fluoro-4-oxo-1,4-dihydroquinoline-3-carboxylic acid], the pIC50 was 5.70 to 6.30. Regarding `O=C(O)c1cn(-c2ccc(CN3CC[C@@H](O)C3)cc2)c2c(Cl)c(N3CCN(c4ccc(F)cc4)CC3)c(F)cc2c1=O` [Example 31, 8-chloro-6-fluoro-7-[4-(4-fluorophenyl)-piperazin-1-yl]-1-(4-{[(3R)-3-hydroxypyrrolidin-1-yl]methyl}phenyl)-4-oxo-1,4-dihydroquinoline-3-carboxylic acid], the pIC50 was more than 6.30.

Regarding `O=C(O)c1cn(-c2ccc(CN3CCCC3)cc2F)c2c(Cl)c(N3CCN(c4ccccc4)CC3)c(F)cc2c1=O` [Example 43, 8-chloro-6-fluoro-1-[2-fluoro-4-(pyrrolidin-1-ylmethyl)phenyl]-4-oxo-7-(4-phenylpiperazin-1-yl)-1,4-dihydroquinoline-3-carboxylic acid], the pIC50 is more than 6.30. The same measure for `COC[C@@H]1CCCN1Cc1ccc(-n2cc(C(=O)O)c(=O)c3cc(F)c(N4CCN(c5ccc(F)cc5)CC4)c(Cl)c32)cc1` [Example 25, 8-chloro-6-fluoro-7-[4-(4-fluorophenyl)-piperazin-1-yl]-1-(4-{[(2S)-2-(methoxymethyl)pyrrolidin-1-yl]methyl}phenyl)-4-oxo-1,4-dihydroquinoline-3-carboxylic acid]: more than 6.30; for `CN(C)Cc1ccc(-n2cc(C(=O)O)c(=O)c3cc(F)c(N4CCN(c5cccc(Cl)c5)CC4)c(OC(F)(F)F)c32)cc1` [Example 130, 7-[4-(3-chlorophenyl)piperazin-1-yl]-1-{4-[(dimethylamino)methyl]phenyl}-6-fluoro-4-oxo-8-(trifluoromethoxy)-1,4-dihydroquinoline-3-carboxylic acid]: more than 6.30; for `COc1c(N2CCN(c3ccccc3F)CC2)c(F)cc2c(=O)c(C(=O)O)cn(-c3ccc(CN(C)C)cc3)c12` [Example 94, 1-{4-[(dimethylamino)methyl]phenyl}-6-fluoro-7-[4-(2-fluorophenyl)piperazin-1-yl]-8-methoxy-4-oxo-1,4-dihydroquinoline-3-carboxylic acid]: 5.70 to 6.30. For the compound `N#Cc1ccccc1N1CCN(c2c(F)cc3c(=O)c(C(=O)O)cn(-c4ccc(CN5CCCC5)nc4)c3c2Cl)CC1` [Example 36, 8-chloro-7-[4-(2-cyanophenyl)piperazin-1-yl]-6-fluoro-4-oxo-1-[6-(pyrrolidin-1-ylmethyl)pyridin-3-yl]-1,4-dihydroquinoline-3-carboxylic acid], the pIC50 is 5.70 to 6.30. With `CCN(CC)Cc1ccc(-n2cc(C(=O)O)c(=O)c3cc(F)c(N4CCN(c5ccccn5)CC4)c(OC(F)(F)Cl)c32)cc1` [Example 159, 8-[chloro(difluoro)methoxy]-1-{4-[(diethylamino)methyl]phenyl}-6-fluoro-4-oxo-7-(4-pyridin-2-ylpiperazin-1-yl)-1,4-dihydroquinoline-3-carboxylic acid], the pIC50 was more than 6.30. `CCN(CC)Cc1ccc(-n2cc(C(=O)O)c(=O)c3cc(F)c(N4CCN(c5ccc(C(F)(F)F)cc5)CC4)c(OC)c32)cc1` [Example 112, 1-{4-[(diethylamino)methyl]phenyl}-6-fluoro-8-methoxy-4-oxo-7-{4-[4-(trifluoromethyl)phenyl]piperazin-1-yl}-1,4-dihydroquinoline-3-carboxylic acid]: the pIC50 is 4.70 to 5.70. `O=C(O)c1cn(-c2ccc(CN3CCCC3)nc2)c2c(Cl)c(N3CCN(c4ccccn4)CC3)c(F)cc2c1=O` [Example 34, 8-chloro-6-fluoro-4-oxo-7-(4-pyridin-2-yl-piperazin-1-yl)-1-[6-(pyrrolidin-1-ylmethyl)pyridin-3-yl]-1,4-dihydroquinoline-3-carboxylic acid]: the pIC50 is 5.70 to 6.30.

`COc1c(N2CCN(c3ccccc3C#N)CC2)c(F)cc2c(=O)c(C(=O)O)cn(-c3ccc(CN(C)C)cc3)c12` [Example 95, 7-[4-(2-cyanophenyl)piperazin-1-yl]-1-{4-[(dimethylamino)methyl]phenyl}-6-fluoro-8-methoxy-4-oxo-1,4-dihydroquinoline-3-carboxylic acid]: the pIC50 was 5.70 to 6.30.

For `O=C(O)c1cn(-c2ccc(CN3CCCC3)cc2)c2c(OC(F)(F)Cl)c(N3CCN(c4ccccc4)CC3)c(F)cc2c1=O` [Example 152, 8-[chloro(difluoro)methoxy]-6-fluoro-4-oxo-7-(4-phenylpiperazin-1-yl)-1-[4-(pyrrolidin-1-ylmethyl)phenyl]-1,4-dihydroquinoline-3-carboxylic acid], the pIC50 is more than 6.30.
